What was measured:
[1] = biological target: T1, RXRa (RXRA) (Homo sapiens, UniProt P19793); experiment: NCGC_RXRa_Agonist: GAL4 BLAM Reporter gene assay: RXRa; format: cell-based; conditions: agonist mode; scale not given, looks like -log10 of molar active concentration; 0 = no activity
T1 sequence (P19793 227-462 limits assumed): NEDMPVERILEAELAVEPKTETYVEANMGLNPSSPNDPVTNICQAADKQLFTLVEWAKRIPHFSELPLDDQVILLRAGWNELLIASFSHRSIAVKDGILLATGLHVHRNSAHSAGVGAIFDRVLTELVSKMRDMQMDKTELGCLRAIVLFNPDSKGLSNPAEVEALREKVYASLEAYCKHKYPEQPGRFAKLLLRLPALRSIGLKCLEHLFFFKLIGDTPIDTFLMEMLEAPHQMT
Protocol: (§1) These assays measure binding constants and enzyme inhibition values for nuclear receptors. The targets include [drawing 67] , [drawing 68] , [drawing 69] , [drawing 70] , [drawing 71] , [drawing 72] , [drawing 73] , [drawing 74] , [drawing 75] and [drawing 76] . Each of the nuclear receptor targets was measured in agonist mode. Assays were run at the NIH Chemical Genomics Center (Rockville, MD).
(§2) Cell-based HTS Assays: These assays measuring binding constants and enzyme inhibition values for nuclear receptors. The targets include AR, ER, FXR, LXR, PPARα, PPARδ, PPARγ, RXRα, RXRβ and PXR. Each of the nuclear receptor targets was measured in both agonist and antagonist mode, but the antagonist data is still undergoing analysis due to possible interference between cytotoxicity and assay activity, so antagonist mode data were not used in the present analysis. Assays were run at the NIH Chemical Genomics Center (Rockville, MD) as part of the Tox21 collaboration. […] The R^2 was required to be ≥0.5. Values where only the highest concentration exceeded 50% activity were excluded to eliminate weak or false positives. Detailed description of the methods, data and analysis methods for this dataset will be presented in a separate publication.

[2] = tested on: LXRa (NR1H2); experiment: NCGC_LXR_Agonist: GAL4 BLAM Reporter gene assay: LXRa; format: cell-based, human; conditions: agonist mode
Protocol: as §1, §2

[3] = biological target: T2, PPARA (peroxisome proliferator-activated receptor alpha) (Homo sapiens, UniProt Q07869); experiment: ATG_PPARa_TRANS: Factorial reporter gene assay (HepG2); format: cell-based; set-up: scale not given here; conditions: scale not given, looks like -log10 of molar active concentration, 0 = no activity
T2 construct: expressed in transfected cells; host or cells: HepG2
T2 sequence (Q07869 1-468): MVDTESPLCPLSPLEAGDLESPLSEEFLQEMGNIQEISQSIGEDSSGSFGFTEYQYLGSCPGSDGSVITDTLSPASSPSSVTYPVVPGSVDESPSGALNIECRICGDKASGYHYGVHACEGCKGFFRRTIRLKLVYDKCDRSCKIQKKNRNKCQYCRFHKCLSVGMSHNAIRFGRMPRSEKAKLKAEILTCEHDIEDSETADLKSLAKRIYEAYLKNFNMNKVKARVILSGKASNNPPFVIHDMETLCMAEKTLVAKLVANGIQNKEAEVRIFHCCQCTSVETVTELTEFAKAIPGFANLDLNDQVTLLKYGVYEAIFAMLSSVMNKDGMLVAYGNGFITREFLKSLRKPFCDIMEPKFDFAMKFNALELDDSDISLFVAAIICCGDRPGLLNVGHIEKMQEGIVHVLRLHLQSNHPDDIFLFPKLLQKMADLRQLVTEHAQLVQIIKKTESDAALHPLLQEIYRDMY
Protocol: (§3) A multiple reporter transcription unit (MRTU) library consisting of 48 transcription factor binding sites was transfected into the HepG2 human liver hepatoma cell line. In addition to the cis-acting reporter genes (CIS), a modification of the approach was used to generate a trans-system (TRANS) with a mammalian one-hybrid assay consisting of an additional 25 MRTU library reporting the activity of nuclear receptor super-family members. […] These assays were performed by Attagene Inc. (Morrisville NC) under contract to EPA.
(§4) In addition to the cis-acting reporter genes (CIS), a modification of the approach was used to generate a trans-system (TRANS) with a mammalian one-hybrid assay consisting of an additional 25 MRTU library reporting the activity of nuclear receptor super-family members. […] Chemicals were then tested in the CIS and TRANS assays at seven concentrations starting at the MTC and followed by three-fold serial dilutions. These assays were performed by Attagene Inc. (Morrisville NC) under contract to EPA. Detailed description of the methods, data and analysis methods for this dataset will be presented in a separate publication.

[4] = biological target: T3, LXRa (NR1H3) (Homo sapiens, UniProt Q13133); experiment: ATG_LXRa_TRANS: Factorial reporter gene assay (HepG2); format: cell-based
T3 construct: expressed in transfected cells; host or cells: HepG2
T3 sequence (Q13133 1-447): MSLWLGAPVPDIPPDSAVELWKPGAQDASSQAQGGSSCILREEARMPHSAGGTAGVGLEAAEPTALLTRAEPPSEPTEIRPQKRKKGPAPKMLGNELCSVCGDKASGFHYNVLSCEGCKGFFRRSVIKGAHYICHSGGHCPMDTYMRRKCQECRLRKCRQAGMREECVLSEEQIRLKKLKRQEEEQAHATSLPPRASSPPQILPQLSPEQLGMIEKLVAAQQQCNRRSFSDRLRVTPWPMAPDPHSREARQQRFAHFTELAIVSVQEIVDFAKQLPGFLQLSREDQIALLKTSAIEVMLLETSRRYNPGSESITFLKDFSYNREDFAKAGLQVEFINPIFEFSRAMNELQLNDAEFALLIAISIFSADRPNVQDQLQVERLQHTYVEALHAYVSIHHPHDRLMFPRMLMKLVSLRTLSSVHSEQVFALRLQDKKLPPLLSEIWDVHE
Protocol: as §3, §4

[5] = scale not given, looks like -log10 of molar active concentration, 0 = no activity
[6] = HepG2, scale not given, looks like -log10 of molar active concentration, 0 = no activity

SMILES | NCGC_RXRa_Agonist [1] | NCGC_LXR_Agonist [2, 5] | ATG_PPARa_TRANS [3] | ATG_LXRa_TRANS [4, 6] | NCGC_LXR_Agonist [2] | ATG_LXRa_TRANS ([4]; HepG2 reporter)
COC(=O)c1ccccc1CS(=O)(=O)NC(=O)Nc1nc(OC)cc(OC)n1 [r33] | 0 | 0 | 0 | 0 | – | –
CC(C)N1C(=O)c2ccccc2NS1(=O)=O [r37] | 0 | 0 | 0 | 4.357 | – | –
COc1ccc(-c2ccccc2)cc1NNC(=O)OC(C)C [r38] | 0 | 0 | 0 | 0 | – | –
Cc1c(COC(=O)C2C(/C=C(\Cl)C(F)(F)F)C2(C)C)cccc1-c1ccccc1 (stereo not drawn) [r39] | 0 | 0 | 0 | 0 | – | –
CC(C)(c1ccc(O)cc1)c1ccc(O)cc1 [r40] | 0 | 0 | 0 | 0 | – | –
OB(O)O [r41] | 0 | 0 | 0 | 0 | – | –
O=C(Nc1ccccc1-c1ccc(Cl)cc1)c1cccnc1Cl [r42] | 0 | 0 | 0 | 0 | – | –
CCC(C)n1c(=O)[nH]c(C)c(Br)c1=O (stereo not drawn) [r43] | 0 | 0 | 0 | 0 | – | –
N#Cc1cc(Br)c(O)c(Br)c1 [r44] | 4.817 | 0 | 4.678 | 0 | – | –
CC(C)N1C(=O)N(c2ccccc2)CS/C1=N\C(C)(C)C [r45] | 0 | 0 | 0 | 0 | – | –
CCCCOCN(C(=O)CCl)c1c(CC)cccc1CC [r46] | 0 | 0 | 0 | 0 | – | –
C=CCOC(=O)C(C)(C)OC(=O)c1cc(-n2c(=O)cc(C(F)(F)F)n(C)c2=O)ccc1Cl [r47] | 0 | 0 | 0 | 0 | – | –
CCC(C)Nc1c([N+](=O)[O-])cc(C(C)(C)C)cc1[N+](=O)[O-] (stereo not drawn) [r48] | 0 | 0 | 0 | 0 | – | –
CCSC(=O)N(CC(C)C)CC(C)C [r49] | 0 | 0 | 0 | 0 | – | –
O=C1C2CC=CCC2C(=O)N1SC(Cl)(Cl)Cl (stereo not drawn) [r51] | 0 | 0 | 0 | 0 | – | –
CNC(=O)Oc1cccc2ccccc12 [r52] | 0 | 0 | 0 | 0 | – | –
CC1=C(C(=O)Nc2ccccc2)SCCO1 [r53] | 0 | 0 | 0 | 0 | – | –
CCOC(=O)C(Cl)Cc1cc(-n2nc(C)n(C(F)F)c2=O)c(F)cc1Cl (stereo not drawn) [r54] | 0 | 0 | 0 | 0 | – | –
Nc1cnn(-c2ccccc2)c(=O)c1Cl [r56] | 0 | 0 | 0 | 0 | – | –
COc1cc(Cl)c(OC)cc1Cl [r57] | 0 | 0 | 0 | 0 | – | –
N#Cc1c(Cl)c(Cl)c(Cl)c(C#N)c1Cl [r58] | 0 | 0 | 0 | 0 | – | –
CC(C)OC(=O)Nc1cccc(Cl)c1 [r59] | 0 | 0 | 0 | 0 | – | –
COc1nc(C)nc(NC(=O)NS(=O)(=O)c2ccccc2Cl)n1 [r62] | 0 | 0 | 0 | 0 | – | –
COc1nc(C)nc(NC(=O)NS(=O)(=O)c2ccccc2Cl)n1 [r63] | 0 | 0 | 0 | 0 | – | –
Cc1ccccc1CO[C@@H]1C[C@@]2(C(C)C)CC[C@]1(C)O2 [r64] | 0 | 0 | 0 | 4.377 | – | –
C#CCC1=C(C)[C@H](OC(=O)[C@H]2[C@H](C=C(C)C)C2(C)C)CC1=O [r249] | – | – | – | – | 4.777 | –
CCc1nn(C)c(C(=O)NCc2ccc(C(C)(C)C)cc2)c1Cl [r291] | – | – | – | – | – | 6.444

Reference: paper PMC3038857, “Using Nuclear Receptor Activity to Stratify Hepatocarcinogens” (PLoS ONE, 2011)
